This is an account of results in patent US20080261977A1, “Pyrimidine Derivatives as Cannabinoid Receptor Modulators” (priority 2004, published 2008).

Where a name gives a salt, the structure may show the parent alone. Read-outs that look alike come from different tables or passages of the source. Bounds are passed on as bounds.

This experiment has as its target T1, human cannabinoid CB2 receptor (Homo sapiens, UniProt P34972).
T1 construct: expressed in transfected cells; host or cells: Saccharomyces cerevisiae strain MMY23 (cassette integrated at the ura3 locus; chimeric Gpa1/Gαi3)
In words: Cannabinoid CB2 receptor agonist activity, yeast (Saccharomyces cerevisiae) cells expressing the receptor, FDGlu fluorescence. In kind it is cell-based. To be noted: for Emax: read-out: efficacy (Emax relative to HU210) at the cloned human cannabinoid CB2 receptor. As to the method: The cannabinoid CB2 receptor agonist activity of the compounds of formula (I) was determined in accordance with the following experimental method.
Yeast (Saccharomyces cerevisiae) cells expressing the human cannabinoid CB2 receptor were generated by integration of an expression cassette into the ura3 chromosomal locus of yeast strain MMY23. This cassette consisted of DNA sequence encoding the human CB2 receptor flanked by the yeast GPD promoter to the 5′ end of CB2 and a yeast transcriptional terminator sequence to the 3′ end of CB2. MMY23 expresses a yeast/mammalian chimeric G-protein alpha subunit in which the C-terminal 5 amino acids of Gpa1 are replaced with the C-terminal 5 amino acids of human Gαi3 (as described in Brown et al. (2000), Yeast 16:11-22). Cells were grown at 30° C. in liquid Synthetic Complete (SC) yeast media (Guthrie and Fink (1991), Methods in Enzymology, Vol. 194) lacking uracil, tryptophan, adenine and leucine to late logarithmic phase (approximately 6 OD600/ml).
Agonists were prepared as 10 mM stocks in DMSO. EC50 values (the concentration required to produce 50% maximal response) were estimated using dilutions of between 3- and 5-fold (BiomekFX, Beckman) into DMSO. Agonist solutions in DMSO (1% final assay volume) were transferred into black, clear bottom, microtitre plates from NUNC (96- or 384-well). Cells were suspended at a density of 0.2 OD600/ml in SC media lacking histidine, uracil, tryptophan, adenine and leucine and supplemented with 10 mM 3-aminotriazole, 0.1M sodium phosphate pH 7.0, and […] fluorescein di-β-D-glucopyranoside (FDGlu). This mixture (50 ul per well for 384-well plates, 200 ul per well for 96-well plates) was added to agonist in the assay plates (Multidrop 384, Labsystems). After incubation at 30° C. for 24 hours, fluorescence resulting from degradation of FDGlu to fluorescein due to exoglucanase, an endogenous yeast enzyme produced during agonist-stimulated cell growth, was determined using a Spectrofluor microtitre plate reader (Tecan; excitation wavelength: 485 nm; emission wavelength: 535 nm). Fluorescence was plotted against compound concentration and iteratively curve fitted using a four parameter fit to generate a concentration effect value. Efficacy (Emax) was calculated from the equation
Emax=Max[compound X]−Min[compound X]/Max[HU210]−Min[HU210]×100%
where Max[compound X] and Min[compound X] are the fitted maximum and minimum respectively from the concentration effect curve for compound X, and Max[HU210] and Min[HU210] are the fitted maximum and minimum respectively from the concentration effect curve for (6aR,10aR)-3-1,1′-Dimethylheptyl)-6a,7,10,10a-tetrahydro-1-hydroxy-6,6-dimethyl-6H-dibenzo[b,d]pyran-9-methanol (HU210; available from Tocris). Equieffective molar ratio (EMR) values were calculated from the equation
Where EC50[compound X] is the EC50 of compound X and EC50[HU210] is the EC50 of HU210.

The mark [1] stands for this setting: yeast agonist assay, read-out: EC50 at the cloned human cannabinoid CB2 receptor.

T1 sequence (P34972 whole entry): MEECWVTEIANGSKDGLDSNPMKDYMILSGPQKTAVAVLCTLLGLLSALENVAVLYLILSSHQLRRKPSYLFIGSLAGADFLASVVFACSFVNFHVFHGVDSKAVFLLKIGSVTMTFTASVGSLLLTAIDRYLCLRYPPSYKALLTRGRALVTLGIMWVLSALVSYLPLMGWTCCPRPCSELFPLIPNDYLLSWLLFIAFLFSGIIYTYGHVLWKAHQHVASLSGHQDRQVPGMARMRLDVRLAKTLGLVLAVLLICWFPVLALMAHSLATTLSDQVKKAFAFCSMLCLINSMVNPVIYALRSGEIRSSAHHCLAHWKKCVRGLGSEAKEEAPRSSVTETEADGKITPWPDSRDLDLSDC

Regarding `O=S1(=O)CCC(NCc2cnc(Nc3cccc(Cl)c3)nc2C(F)(F)F)CC1` [Example 26, (3-Chlorophenyl)-{5-[(1,1-dioxo-hexahydro-1l^6-thiopyran-4-ylamino)-methyl]-4-trifluoromethyl-pyrimidin-2-yl}-amine, formate], the Emax was above 50%. In addition, the EC50 under setting [1] was below 300 nM.
Regarding `FC(F)(F)c1nc(Nc2cccc(Cl)c2)ncc1CNC1CCCCC1` [Example 43, (3-Chlorophenyl)-(5-cyclohexylaminomethyl-4-trifluoromethyl-pyrimidin-2-yl)-amine], the half-maximal effective concentration (EC50) fell in the range of 300 to 1000 nM and the Emax is above 50%.
As to `CN(C)Cc1cnc(Nc2cccc(Cl)c2)nc1C(F)(F)F` [Example 44, (3-Chlorophenyl)-(5-dimethylaminomethyl-4-trifluoromethyl-pyrimidin-2-yl)-amine, formate], the Emax is above 50%. Besides, under setting [1], the EC50 was in the range of 300 to 1000 nM.
For `CC(C)(C)CNCc1cnc(Nc2ccc(Cl)cc2Cl)nc1C(F)(F)F` [Example 32, (2,4-Dichlorophenyl)-{5-[(2,2-dimethylpropylamino)-methyl]-4-trifluoromethyl-pyrimidin-2-yl}-amine], the EC50 is below 300 nM and the Emax was above 50%.
For the compound `FC(F)(F)c1nc(Nc2cccc(Cl)c2)ncc1CNC1CC1` [Example 23, (3-Chlorophenyl)-(5-cyclopropylaminomethyl-4-trifluoromethyl-pyrimidin-2-yl)-amine,formate], the EC50 under setting [1] is below 300 nM. Where the note is “yeast agonist assay”, the Emax was above 50%.
As for `FC(F)(F)c1nc(Nc2cccc(Cl)c2)ncc1CN1CCOCC1` [Example 14, (3-Chlorophenyl)-(5-morpholin-4-ylmethyl-4-trifluoromethyl-pyrimidin-2-yl)-amine], the EC50 is below 300 nM and the Emax is above 50%.
For the compound `FC(F)(F)c1nc(Nc2ccc(Cl)cc2Cl)ncc1CNCC1CCC1` [Example 29, (2,4-Dichlorophenyl)-{5-[(cyclobutylmethylamino)-methyl]-4-trifluoromethyl-pyrimidin-2-yl}-amine,formate], the 50% effective concentration (EC50) under setting [1] is below 300 nM. Moreover, the Emax (yeast agonist assay) was above 50%.
Consider `Clc1cccc(Nc2ncc(CNCC3CC3)c(C3CC3)n2)c1` [Example 3, (3-Chloro-phenyl)-{4-cyclopropyl-5-[(cyclopropylmethyl-amino)-methyl]-pyrimidin-2-yl}-amineacetate], for which, under setting [1], the EC50 was below 300 nM. Also, for the setting “yeast agonist assay”, the Emax is above 50%.
Turning to `CC(NCC1CC1)c1cnc(Nc2cccc(F)c2)nc1C(F)(F)F` (stereo not drawn) [Example 94, (3-Fluorophenyl)-{5-[1-(cyclopropylmethyl-amino)-ethyl]-4-trifluoromethyl-pyrimidin-2-yl}-amine, formate], under setting [1], the EC50 was below 300 nM. In addition, the Emax (yeast agonist assay) was above 50%.
For `CC(NCC1CCCCC1)c1cnc(Nc2ccc(Cl)cc2Cl)nc1C(F)(F)F` (stereo not drawn) [Example 95, (2,4-Dichlorophenyl)-{5-[1-(cyclohexyhnethyl-amino)-ethyl]-4-trifluoromethyl-pyrimidin-2-yl}-amine], the EC50 was below 300 nM and the Emax is above 50%.
Turning to `CC(C)CCNCc1cnc(Nc2cccc(F)c2)nc1C(F)(F)F` [Example 55, (3-Fluorophenyl)-{5-[(3-methylbutylamino)-methyl]-4-trifluoromethyl-pyrimidin-2-yl}-amine], the Emax was above 50%. Also, under setting [1], the EC50 was 300 to 1000 nM.
On to `CC(C)(C)c1nc(Nc2cccc(Cl)c2)ncc1CNCC1CC1` [Example 103, (4-tert-Butyl-5-[(cyclopropylmethyl-amino)-methyl]-pyrimidin-2-yl}-(3-chloro-phenyl)-aminehydrocholoride], for which the EC50 under setting [1] was below 300 nM. Moreover, the Emax (yeast agonist assay) was above 50%.
Take `CC(C)CNCc1cnc(Nc2ccc(Cl)cc2Cl)nc1C(F)(F)F` [Example 27, (2,4-Dichlorophenyl)-{5-[(isobutylamino)-methyl]-4-trifluoromethyl-pyrimidin-2yl}-amine]: the EC50 is below 300 nM and the Emax is above 50%.
Take `FC(F)(F)c1nc(Nc2cccc(Cl)c2)ncc1CNC1CCOCC1` [Example 16, (3-Chlorophenyl)-{5-[(tetrahydro-pyran-4-ylamino)-methyl]-4-trifluoromethyl-pyrimidin-2-yl}-amine, formate]: the 50% effective concentration (EC50) under setting [1] was below 300 nM. The Emax (yeast agonist assay) was above 50%.
In the case of `CC(C)CNCc1cnc(Nc2cccc(C#N)c2)nc1C(F)(F)F` [Example 59, (3-Cyanophenyl)-{5-[(isobutylamino)-methyl]-4-trifluoromethyl-pyrimidin-2yl}-amine, formate], the Emax was above 50%. In addition, under setting [1], the EC50 was 300 to 1000 nM.
For `Fc1cccc(Nc2ncc(CNCC3CC3)c(C(F)(F)F)n2)c1` [Example 54, (3-Fluorophenyl)-{5-[(cyclopropylmethylamino)-methyl]-4-trifluoromethyl-pyrimidin-2-yl}-amine,formate] the same measures were above 50% and 300 to 1000 nM.
As to `CC(C)CNC(C)c1cnc(Nc2cccc(Cl)c2)nc1C(F)(F)F` (stereo not drawn) [Example 92, (3-Chlorophenyl)-[5-(1-isobutylamino-ethyl)-4-trifluoromethyl-pyrimidin-2-yl]-amine, formate], the EC50 under setting [1] was below 300 nM. In addition, for the setting “yeast agonist assay”, the maximal response (Emax) was above 50%.
With `COCCN(CCOC)Cc1cnc(Nc2cccc(Cl)c2)nc1C(F)(F)F` [Example 83, (5-{[Bis-(2-methoxy-ethyl)-amino]-methyl}-4-trifluoromethyl-pyrimidin-2-yl)-(3-chlorophenyl)-amine], the “potency or efficacy at the CB2 receptor (in words)” value is “no appreciable potency or efficacy”. Further, the “potency or efficacy at the CB2 receptor (in words)” value (listed as (5-{[Bis-(2-methoxy-ethyl)-amino]-methyl}-4-trifluoromethyl-pyrimidin-2-yl)-(3-c)) was “do not appear to have any potency or efficacy”.
With `CN(Cc1cnc(Nc2cccc(Cl)c2)nc1C(F)(F)F)CC1CCOCC1` [Example 42, (3-Chlorophenyl)-(5-{[methyl-(tetrahydro-pyran-4-ylmethyl)-amino]-methyl}-4-trifluoromethyl-pyrimidin-2-yl)-amine], the Emax was above 50%. In addition, under setting [1], the EC50 lay within 300 to 1000 nM.
Turning to `Clc1cccc(Nc2ncc(CNC3CCC3)c(C3CC3)n2)c1` [Example 1, (3-Chloro-phenyl)-(5-cyclobutylaminomethyl-4-cyclopropyl-pyrimidin-2-yl)-amine], under setting [1], the EC50 is below 300 nM. For the same compound, where the note is “yeast agonist assay”, the Emax was above 50%.
For `CC(C)CNC(C)c1cnc(Nc2cccc(F)c2)nc1C(F)(F)F` (stereo not drawn) [Example 87, (3-Fluorophenyl)-[5-(1-isobutylamino-ethyl)-4-trifluoromethyl-pyrimidin-2-yl]-amine], under setting [1], the EC50 was below 300 nM. Moreover, the Emax (yeast agonist assay) is above 50%.

A word on the Emax: it is the size of the effect at its maximum, as opposed to the concentration needed. In general, EC50 refers to the midpoint of the concentration-response curve.
